Values quoted from earlier work as cited in patent publication US11304902B2, “Pharmaceutical compositions, preparation and uses thereof” (CURADIGM SAS, priority 2014, dated 2022).

Experiments:
Settings in all cases: human CYP enzyme
CYP1B1 = molecular target: T1, CYP1B1 (Homo sapiens, UniProt Q16678)
T1 sequence (Q16678 1-543): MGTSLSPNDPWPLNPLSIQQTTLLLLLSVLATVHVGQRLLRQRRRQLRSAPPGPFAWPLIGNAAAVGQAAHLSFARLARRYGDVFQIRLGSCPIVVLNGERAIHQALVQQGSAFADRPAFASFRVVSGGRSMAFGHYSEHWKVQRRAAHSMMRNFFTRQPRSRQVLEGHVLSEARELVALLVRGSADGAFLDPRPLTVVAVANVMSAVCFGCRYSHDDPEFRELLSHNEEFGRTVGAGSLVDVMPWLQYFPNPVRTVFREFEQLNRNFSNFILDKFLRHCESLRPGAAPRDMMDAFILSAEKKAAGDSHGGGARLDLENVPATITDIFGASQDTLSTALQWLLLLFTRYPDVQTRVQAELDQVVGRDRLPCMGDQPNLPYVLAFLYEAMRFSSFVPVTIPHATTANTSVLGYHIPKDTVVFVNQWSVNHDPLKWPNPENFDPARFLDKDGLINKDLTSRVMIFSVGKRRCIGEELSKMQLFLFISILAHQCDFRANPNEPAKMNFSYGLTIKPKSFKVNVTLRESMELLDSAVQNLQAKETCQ

CYP2E1 = CYP2E1 (Homo sapiens, UniProt P05181)
CYP4F12 = molecular target: T2, CYP4F12 (Homo sapiens, UniProt Q9HCS2)
T2 sequence (Q9HCS2 1-524): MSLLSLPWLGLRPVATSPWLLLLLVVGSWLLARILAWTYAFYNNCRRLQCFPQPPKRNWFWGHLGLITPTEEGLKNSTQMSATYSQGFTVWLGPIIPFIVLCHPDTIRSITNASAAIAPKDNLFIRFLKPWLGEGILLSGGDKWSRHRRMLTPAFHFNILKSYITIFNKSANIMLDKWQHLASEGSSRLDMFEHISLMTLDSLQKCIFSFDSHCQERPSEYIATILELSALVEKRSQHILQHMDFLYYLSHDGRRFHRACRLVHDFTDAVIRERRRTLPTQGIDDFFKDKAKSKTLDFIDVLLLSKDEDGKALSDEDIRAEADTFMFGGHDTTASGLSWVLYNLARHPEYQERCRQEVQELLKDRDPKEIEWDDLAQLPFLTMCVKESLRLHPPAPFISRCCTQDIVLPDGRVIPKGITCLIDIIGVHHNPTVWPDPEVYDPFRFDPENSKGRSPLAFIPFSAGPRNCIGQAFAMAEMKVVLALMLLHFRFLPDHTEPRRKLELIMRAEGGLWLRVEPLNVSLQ

CYP2C8 = molecular target: T3, CYP2C8 (Homo sapiens, UniProt P10632)
T3 sequence (P10632 1-490): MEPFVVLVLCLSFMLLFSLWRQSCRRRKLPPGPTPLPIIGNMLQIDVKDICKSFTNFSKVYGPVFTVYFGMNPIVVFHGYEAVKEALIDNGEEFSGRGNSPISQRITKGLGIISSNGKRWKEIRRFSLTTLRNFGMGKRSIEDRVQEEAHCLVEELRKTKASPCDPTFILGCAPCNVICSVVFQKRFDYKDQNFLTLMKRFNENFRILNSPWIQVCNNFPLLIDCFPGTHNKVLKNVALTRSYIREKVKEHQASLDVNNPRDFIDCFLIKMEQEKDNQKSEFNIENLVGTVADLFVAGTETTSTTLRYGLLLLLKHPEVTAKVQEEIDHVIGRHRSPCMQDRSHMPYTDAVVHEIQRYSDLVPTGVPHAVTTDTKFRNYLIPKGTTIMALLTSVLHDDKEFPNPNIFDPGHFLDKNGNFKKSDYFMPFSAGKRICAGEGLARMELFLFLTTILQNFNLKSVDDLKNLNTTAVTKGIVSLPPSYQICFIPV

CYP2D6 = CYP2D6 (Homo sapiens, UniProt P10635)
CYP2C19 = CYP2C19 (Homo sapiens, UniProt P33261)
CYP4F2 = molecular target: T4, CYP4F2 (Homo sapiens, UniProt P78329)
T4 sequence (P78329 5-520): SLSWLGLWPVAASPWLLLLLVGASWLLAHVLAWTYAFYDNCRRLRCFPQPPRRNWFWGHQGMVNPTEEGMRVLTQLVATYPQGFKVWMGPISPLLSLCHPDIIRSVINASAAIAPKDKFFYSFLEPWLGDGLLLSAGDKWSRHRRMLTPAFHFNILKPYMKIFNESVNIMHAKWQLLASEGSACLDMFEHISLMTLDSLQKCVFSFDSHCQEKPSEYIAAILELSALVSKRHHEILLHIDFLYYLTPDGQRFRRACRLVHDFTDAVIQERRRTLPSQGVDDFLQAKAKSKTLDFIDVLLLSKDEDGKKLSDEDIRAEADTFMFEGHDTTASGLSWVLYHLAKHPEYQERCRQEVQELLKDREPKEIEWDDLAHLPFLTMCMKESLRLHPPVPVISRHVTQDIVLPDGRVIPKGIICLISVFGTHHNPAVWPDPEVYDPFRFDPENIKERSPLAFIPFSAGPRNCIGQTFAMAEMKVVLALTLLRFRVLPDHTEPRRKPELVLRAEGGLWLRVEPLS

CYP2D6, sequence (P10635 whole entry): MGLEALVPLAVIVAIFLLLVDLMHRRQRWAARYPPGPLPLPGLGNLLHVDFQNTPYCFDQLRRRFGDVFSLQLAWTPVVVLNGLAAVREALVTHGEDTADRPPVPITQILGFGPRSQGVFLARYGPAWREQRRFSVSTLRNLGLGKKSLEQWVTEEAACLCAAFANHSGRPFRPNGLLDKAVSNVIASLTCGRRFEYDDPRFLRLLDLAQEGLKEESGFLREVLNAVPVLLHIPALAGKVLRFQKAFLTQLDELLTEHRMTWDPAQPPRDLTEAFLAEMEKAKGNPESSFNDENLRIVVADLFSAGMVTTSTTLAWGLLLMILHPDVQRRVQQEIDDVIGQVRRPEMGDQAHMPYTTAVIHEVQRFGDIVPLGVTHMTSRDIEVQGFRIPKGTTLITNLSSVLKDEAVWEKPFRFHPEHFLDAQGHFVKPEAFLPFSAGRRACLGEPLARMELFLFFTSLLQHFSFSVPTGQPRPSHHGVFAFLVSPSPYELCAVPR
CYP2E1, sequence (P05181 whole entry): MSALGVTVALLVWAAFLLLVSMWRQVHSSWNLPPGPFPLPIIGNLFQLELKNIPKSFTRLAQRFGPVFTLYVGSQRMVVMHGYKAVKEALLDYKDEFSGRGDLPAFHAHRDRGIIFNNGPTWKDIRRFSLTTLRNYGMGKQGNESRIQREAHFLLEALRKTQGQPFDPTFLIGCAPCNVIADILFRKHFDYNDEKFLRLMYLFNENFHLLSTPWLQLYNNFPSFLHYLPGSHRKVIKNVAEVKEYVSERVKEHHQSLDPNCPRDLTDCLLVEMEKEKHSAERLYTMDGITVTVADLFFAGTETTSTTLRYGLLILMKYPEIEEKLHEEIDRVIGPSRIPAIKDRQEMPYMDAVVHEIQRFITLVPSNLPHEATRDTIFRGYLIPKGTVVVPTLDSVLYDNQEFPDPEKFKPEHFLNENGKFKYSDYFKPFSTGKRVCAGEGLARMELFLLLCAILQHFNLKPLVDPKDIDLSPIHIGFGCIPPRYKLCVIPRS
CYP2C19, sequence (P33261 whole entry): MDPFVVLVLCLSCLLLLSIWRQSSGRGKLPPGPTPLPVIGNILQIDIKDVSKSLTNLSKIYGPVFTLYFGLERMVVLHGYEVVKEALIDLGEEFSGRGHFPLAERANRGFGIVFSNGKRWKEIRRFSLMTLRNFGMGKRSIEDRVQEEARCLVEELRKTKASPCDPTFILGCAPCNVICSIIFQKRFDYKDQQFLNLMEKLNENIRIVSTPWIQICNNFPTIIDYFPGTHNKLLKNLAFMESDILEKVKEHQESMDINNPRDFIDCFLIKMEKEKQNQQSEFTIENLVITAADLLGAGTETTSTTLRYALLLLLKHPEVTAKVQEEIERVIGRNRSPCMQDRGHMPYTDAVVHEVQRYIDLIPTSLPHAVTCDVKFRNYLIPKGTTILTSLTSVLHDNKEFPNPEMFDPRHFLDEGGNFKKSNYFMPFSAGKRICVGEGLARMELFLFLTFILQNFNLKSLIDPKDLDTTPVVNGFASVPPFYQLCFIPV

For `CCCCC/C=C\C/C=C\C/C=C\C/C=C\CCCC(=O)O` [Arachidonic acid, arachidonic acid], the “role towards CYP1B1 (substrate / inhibitor / inducer)” value (CYP1B1) is listed as “Inhibitor”, the “role towards CYP2E1 (substrate / inhibitor / inducer)” value (CYP2E1) is listed as “Inhibitor” and the “role towards CYP4F12 (substrate / inhibitor / inducer)” value (CYP4F12) is listed as “Substrate”. The “role towards CYP2C8 (substrate / inhibitor / inducer)” value (CYP2C8) was “Substrate”, the “role towards CYP2D6 (substrate / inhibitor / inducer)” value (CYP2D6) was “Inhibitor” and the “role towards CYP2C19 (substrate / inhibitor / inducer)” value (CYP2C19) was “Substrate”. The “role towards CYP4F2 (substrate / inhibitor / inducer)” value (CYP4F2) was “Substrate”.
